From US9061060B2, “Deuterated benzylbenzene derivatives and methods of use” (Theracos Inc., priority 2008, dated 2015) come the findings set out here.

One data set has as its target T1, human SGLT2 (Homo sapiens, UniProt P31639).
T1 construct: A full-length cDNA clone expressing human SGLT2 (GenScript Corporation)
T1 sequence (P31639 1-672): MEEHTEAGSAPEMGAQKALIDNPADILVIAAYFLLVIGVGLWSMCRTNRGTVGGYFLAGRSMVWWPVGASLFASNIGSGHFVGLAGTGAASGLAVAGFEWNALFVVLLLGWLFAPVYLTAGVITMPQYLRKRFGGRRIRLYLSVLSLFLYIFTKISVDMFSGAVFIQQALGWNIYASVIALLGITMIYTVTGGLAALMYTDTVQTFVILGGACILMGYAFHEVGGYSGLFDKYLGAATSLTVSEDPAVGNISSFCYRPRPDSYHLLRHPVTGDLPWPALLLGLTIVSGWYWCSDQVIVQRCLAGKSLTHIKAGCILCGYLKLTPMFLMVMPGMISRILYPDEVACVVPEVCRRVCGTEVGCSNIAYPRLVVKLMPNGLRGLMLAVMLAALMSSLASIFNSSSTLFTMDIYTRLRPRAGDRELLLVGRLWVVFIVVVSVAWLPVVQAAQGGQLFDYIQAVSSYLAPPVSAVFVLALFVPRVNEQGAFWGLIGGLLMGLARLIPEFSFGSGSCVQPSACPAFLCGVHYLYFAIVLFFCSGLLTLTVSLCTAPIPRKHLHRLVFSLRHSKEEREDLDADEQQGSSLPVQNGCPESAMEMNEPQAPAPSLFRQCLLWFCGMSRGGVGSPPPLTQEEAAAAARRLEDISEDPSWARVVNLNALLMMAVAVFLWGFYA
Briefly: Methyl-α-D-[U-14C]glucopyranoside uptake assay, cells stably expressing human SGLT2. It counts as cell-based. To be noted: for IC50: HEK293.ETN cells expressing human SGLT2, 25% human serum, 1.5 hours; for Selectivity: SGLT1 IC50 divided by SGLT2 IC50. The text has this: A full-length cDNA clone expressing human SGLT2 (GenScript Corporation) was subcloned into Hind III and Not I sites of the pEAK15 expression vector. Clones harboring the cDNA inserts were identified by restriction analysis.
A plasmid containing human SGLT2 was linearized with Nsi I and purified by agarose gel electrophoresis. Using Lipofectamine 2000 Transfection Reagent (Invitrogen Corporation), DNA was transfected into HEK293.ETN cells and cultured in Dulbecco's Modified Eagle Medium (DMEM) containing 10% fetal bovine serum (FBS) at 37° C. under 5% CO2 for 24 hours. Transfectants were selected in the same growth medium supplemented with puromycin (Invitrogen Corporation) for two weeks. Puromycin-resistant cells were recovered and seeded on a fresh 96-well plate (single cell per well) and cultured in the presence of puromycin until cells became confluent.
Cells expressing SGLT1 or SGLT2 were seeded on 96-well ScintiPlate scintillating plates (PerkinElmer, Inc.) in DMEM containing 10% FBS (1×10^5 cells per well in […] medium) incubated at 37° C. under 5% CO2 for 48 hours prior to the assay.

Data set [1] is described as follows: Pharmacokinetic parameters in SD rats. It counts as in vivo, Sprague-Dawley rats. The following applies: single oral 3 mg/kg in 30% PEG400, plasma. The procedure:
The pharmacokinetic study of each test compound was conducted in 4 Sprague-Dawley rats following a single oral administration of 3 mg/kg of the compound. The dose was prepared by dissolving test article in appropriate volume of 30% PEG400. The plasma samples were collected from the orbital plexus at 0.083, 0.25, 0.50, 1.0, 2.0, 4.0, 6.0, 8.0, 12 and 24 hours post dose, and the plasma concentrations were determined by a developed LC-MS/MS method.

Broadly, the IC50 is the midpoint of a concentration-inhibition curve. By CL/F is commonly meant the apparent clearance, not corrected for the fraction that reaches the circulation. Take `COc1ccc(Cc2cc([C@@H]3O[C@H](CO)[C@@H](O)[C@H](O)[C@H]3O)ccc2Cl)cc1` [Ref B, (2S,3R,4R,5S,6R)-2-(4-chloro-3-(4-methoxybenzyl)phenyl)-6-(hydroxymethyl)tetrahydro-2H-pyran-3,4,5-triol, reference compound]: on human SGLT2, the IC50 was found to be 1.9 nM and the Selectivity is reported as 284. The CL/F in data set [1] (Sprague-Dawley, rat) is 9.47 mL/min/kg. Besides, the AUC(0-t) in data set [1] (Sprague-Dawley, rat, read-out: AUC0-t (mean ± SD)) came to 5240 ± 715 ng·h/mL. For the same compound, in data set [1], the “Cmax (mean ± SD)” value turned out to be 1638 ± 326 ng/mL, the “t1/2 (mean ± SD)” value came out at 3.55 ± 1.80 h and the “tmax (mean ± SD)” value is listed as 0.56 ± 0.31 h.

`[2H]C([2H])([2H])Oc1ccc(C([2H])([2H])c2cc([C@@H]3O[C@H](CO)[C@@H](O)[C@H](O)[C@H]3O)ccc2Cl)cc1` [compound 19, (2S,3R,4R,5S,6R)-2-(4-chloro-3-((4-(methoxy-d3)phenyl)methyl-d2)phenyl)-6-(hydroxymethyl)tetrahydro-2H-pyran-3,4,5-triol]: on human SGLT2, the IC50 came to 0.8 nM and the Selectivity turned out to be 1025.
